The values below come from article PMC10772362 (RSC Advances, 2024).

Experiment [1] has as its system KB (human mouth epidermal carcinoma) cell line. The experiment is described as follows: MTT cytotoxicity assay, KB cells. The conditions noted are these: for IC50: Homo sapiens, KB, 72 h, read-out: IC50, KB; for Selective index, KB: ratio IC50 in Hek-293 to IC50 in KB. A general note: Formazan colour is commonly taken as a measure of viable cells.
The test system of experiment [2] is Hek-293 (human embryonic kidney 293) cell line. The experiment is described as follows: MTT cytotoxicity assay, normal Hek-293 cells. The conditions noted are these: HEK293, 72 h, read-out: IC50, Hek-293.
The test system of experiment [3] is MCF7 (human breast adenocarcinoma) cell line. Briefly: MTT cytotoxicity assay, MCF7 cells. The conditions noted are these: for IC50: Homo sapiens, MCF7, 72 h, read-out: IC50, MCF7; for Selective index, MCF7: ratio IC50 in Hek-293 to IC50 in MCF7.
The test system of experiment [4] is HepG2 (human hepatocellular carcinoma) cell line. Briefly: MTT cytotoxicity assay, HepG2 cells. Particulars: for IC50: Homo sapiens, HepG2, 72 h, read-out: IC50, HepG2; for Selective index, HepG2: ratio IC50 in Hek-293 to IC50 in HepG2.
The test system of experiment [5] is A549 (human lung adenocarcinoma) cell line. The experiment is described as follows: MTT cytotoxicity assay, A549 cells. Particulars: for IC50: Homo sapiens, A549, 72 h, read-out: IC50, A549; for Selective index, A549: ratio IC50 in Hek-293 to IC50 in A549.
Experiment [6] deals with KB, A549, and HepG2 cell lines. Briefly: MTT cytotoxicity assay, summary over KB, A549 and HepG2. Particulars: Homo sapiens, read-out: IC50 values ranging over KB, A549, and HepG2 cell lines.

Several values for one entry are separate records, joined by “and”; a condition that tells them apart may be missing. Identical values can stand only once.

One may read the IC50 as the midpoint of a concentration-inhibition curve. Turning to `O=C1OCC2=C1C(c1ccsc1)C1=C(N2)C(=O)c2ccccc2C1=O` (stereo not drawn) [Compound 13a, 11-(Thiophen-3-yl)-4,11-dihydrobenzo[g]furo[3,4-b]quinolin-1,5,10(3H)-trione], in experiment [1], the IC50 came out at 1.43 ± 0.14 µM and the “Selective index, KB” value worked out at 16.00. The IC50 in experiment [2] amounted to 22.9 ± 2.18 µM. Further, in experiment [3], the IC50 was 2.06 ± 0.66 µM and the “Selective index, MCF7” value is listed as 11.12. Further, in experiment [4], the 50% inhibitory concentration (IC50) was 1.43 ± 0.15 µM and the “Selective index, HepG2” value stood at 16.00. For the same molecule, in experiment [5], the half-maximal inhibitory concentration (IC50) was 480 ± 30 nM and the “Selective index, A549” value stood at 47.90.

As to `O=C1OCC2=C1C(c1ccoc1)C1=C(N2)C(=O)c2ccccc2C1=O` (stereo not drawn) [Compound 13b, 11-(Furan-3-yl)-4,11-dihydrobenzo[g]furo[3,4-b]quinolin-1,5,10(3H)-trione], the IC50 in experiment [1] is 10.1 ± 1.17 µM; in experiment [2], 13.8 ± 1.41 µM; in experiment [3], 12.6 ± 1.14 µM; in experiment [4], 12.4 ± 1.29 µM; in experiment [5], 3090 ± 390 nM. The “Selective index, KB” value in experiment [1] turned out to be 1.37. In addition, the “Selective index, MCF7” value in experiment [3] is reported as 1.09. The “Selective index, HepG2” value in experiment [4] was 1.12. Further, the “Selective index, A549” value in experiment [5] is listed as 4.47.

For the molecule `O=C1OCC2=C1C(c1ccco1)C1=C(N2)C(=O)c2ccccc2C1=O` (stereo not drawn) [Compound 13c, 11-(Furan-2-yl)-4,11-dihydrobenzo[g]furo[3,4-b]quinolin-1,5,10(3H)-trione], in experiment [1], the IC50 came to 14.2 ± 1.23 µM and the “Selective index, KB” value is 1.02. Further, in experiment [2], the concentration for half-maximal inhibition (IC50) came to 14.6 ± 1.35 µM. Moreover, in experiment [3], the 50% inhibitory concentration (IC50) turned out to be 12.2 ± 1.14 µM and the “Selective index, MCF7” value was 1.20. Also, in experiment [4], the half-inhibitory concentration (IC50) was determined as 3.75 ± 0.69 µM and the “Selective index, HepG2” value came out at 3.88. Further, in experiment [5], the half-inhibitory concentration (IC50) worked out at 3060 ± 270 nM and the “Selective index, A549” value was 4.75.

In the case of `O=C1OCC2=C1C(c1ccc(Br)o1)C1=C(N2)C(=O)c2ccccc2C1=O` (stereo not drawn) [Compound 13d, 11-(5-Bromofuran-2-yl)-4,11-dihydrobenzo[g]furo[3,4-b]quinolin-1,5,10(3H)-trione], the IC50 in experiment [1] turned out to be 2.81 ± 0.32 µM; in experiment [2], 37.1 ± 3.3 µM; in experiment [3], 10.4 ± 1.29 µM; in experiment [4], 0.3 ± 0.06 µM; in experiment [5], 2060 ± 220 nM. Besides, the “Selective index, KB” value in experiment [1] was 13.19. Moreover, the “Selective index, MCF7” value in experiment [3] was 3.58. Also, the “Selective index, HepG2” value in experiment [4] is 122 and 122.40. Besides, the “Selective index, A549” value in experiment [5] is 18.00.

`O=C1OCC2=C1C(c1csc3ccccc13)C1=C(N2)C(=O)c2ccccc2C1=O` (stereo not drawn) [Compound 13e, 11-(Benzo[b]thiophen-3-yl)-4,11-dihydrobenzo[g]furo[3,4-b]quinolin-1,5,10(3H)-trione]: in experiment [1], the half-inhibitory concentration (IC50) is 10.9 ± 1.4 µM and the “Selective index, KB” value worked out at 1.02. Further, in experiment [2], the 50% inhibitory concentration (IC50) was determined as 11.2 ± 0.85 µM. In experiment [3], the IC50 was determined as 13.1 ± 1.6 µM and the “Selective index, MCF7” value came to 0.85. In experiment [4], the half-maximal inhibitory concentration (IC50) worked out at 10.4 ± 1.18 µM and the “Selective index, HepG2” value was found to be 1.07. Further, in experiment [5], the IC50 is 9940 ± 730 nM and the “Selective index, A549” value is reported as 1.12.

Take `O=C1OCC2=C1C(c1coc3ccccc13)C1=C(N2)C(=O)c2ccccc2C1=O` (stereo not drawn) [Compound 13f, 11-(Benzofuran-3-yl)-4,11-dihydrobenzo[g]furo[3,4-b]quinolin-1,5,10(3H)-trione]: in experiment [1], the “fold higher toxicity when compared with ellipticine, KB” value is about 1.8 fold; the IC50 turned out to be 1.1 ± 0.09 µM; the “Selective index, KB” value is recorded as 17.98. In experiment [2], the 50% inhibitory concentration (IC50) was determined as 19.7 ± 1.7 µM. In experiment [3], the IC50 turned out to be 12.7 ± 1.2 µM and the “Selective index, MCF7” value was 1.56. Moreover, in experiment [4], the “fold higher toxicity when compared with ellipticine, HepG2” value was about 1.8 fold; the half-inhibitory concentration (IC50) was found to be 1.3 ± 0.13 µM; the “Selective index, HepG2” value came to 15.10. Besides, in experiment [5], the IC50 was found to be 7020 ± 910 nM and the “Selective index, A549” value came to 2.81.

For `O=C1OCC2=C1C(c1cc3ccccc3s1)C1=C(N2)C(=O)c2ccccc2C1=O` (stereo not drawn) [Compound 13g, 11-(Benzo[b]thiophen-2-yl)-4,11-dihydrobenzo[g]furo[3,4-b]quinolin-1,5,10(3H)-trione], in experiment [1], the concentration for half-maximal inhibition (IC50) was found to be 9.94 ± 0.65 µM and the “Selective index, KB” value was determined as 1.31. The IC50 in experiment [2] came to 13.1 ± 1.7 µM. Also, in experiment [3], the IC50 amounted to 11.3 ± 1.78 µM and the “Selective index, MCF7” value stood at 1.16. Further, in experiment [4], the IC50 amounted to 12.7 ± 1.4 µM and the “Selective index, HepG2” value is on record as 1.03. Besides, in experiment [5], the IC50 was 3130 ± 200 nM and the “Selective index, A549” value stood at 4.18.

`O=C1OCC2=C1C(c1cnc(Cl)s1)C1=C(N2)C(=O)c2ccccc2C1=O` (stereo not drawn) [Compound 13h, 11-(2-Chlorothiazol-5-yl)-4,11-dihydrobenzo[g]furo[3,4-b]quinolin-1,5,10(3H)-trione]: in experiment [1], the IC50 was found to be 1.12 ± 0.1 µM and the “Selective index, KB” value came out at 1.23. For the same molecule, in experiment [2], the half-maximal inhibitory concentration (IC50) turned out to be 1.38 ± 0.18 µM. In experiment [3], the IC50 turned out to be 1.07 ± 0.1 µM and the “Selective index, MCF7” value is 1.29. In experiment [4], the IC50 came out at 0.81 ± 0.11 µM and the “Selective index, HepG2” value is listed as 1.71. Also, in experiment [5], the IC50 is 160 ± 20 nM and the “Selective index, A549” value came out at 8.55.

For `Cc1c(C2C3=C(COC3=O)NC3=C2C(=O)c2ccccc2C3=O)cnn1C` (stereo not drawn) [Compound 13i, 11-(1,5-Dimethyl-1H-pyrazol-4-yl)-4,11-dihydrobenzo[g]furo[3,4-b]quinolin-1,5,10(3H)-trione], in experiment [1], the half-inhibitory concentration (IC50) came to 10.7 ± 1.27 µM and the “Selective index, KB” value is 1.14. Moreover, the half-maximal inhibitory concentration (IC50) in experiment [2] is 12.3 ± 1.13 µM. Further, in experiment [3], the IC50 was 10.4 ± 0.8 µM and the “Selective index, MCF7” value is given as 1.18. Besides, in experiment [4], the IC50 was 7.8 ± 0.53 µM and the “Selective index, HepG2” value is on record as 1.57. In experiment [5], the half-inhibitory concentration (IC50) is 2270 ± 220 nM and the “Selective index, A549” value amounted to 5.40.

For `O=C1OCC2=C1C(c1ccn[nH]1)C1=C(N2)C(=O)c2ccccc2C1=O` (stereo not drawn) [Compound 13j, 11-(1H-pyrazol-5-yl)-4,11-dihydrobenzo[g]furo[3,4-b]quinolin-1,5,10(3H)-trione], in experiment [1], the IC50 was 6 ± 0.63 µM and the “Selective index, KB” value is given as 0.63. For the same molecule, the half-inhibitory concentration (IC50) in experiment [2] came to 3.75 ± 0.69 µM. In addition, in experiment [3], the IC50 came out at 3.24 ± 0.36 µM and the “Selective index, MCF7” value stood at 1.16. Besides, in experiment [4], the IC50 came out at 4.35 ± 0.57 µM and the “Selective index, HepG2” value was 0.86. Further, in experiment [5], the IC50 was found to be 5430 ± 390 nM and the “Selective index, A549” value came out at 0.69.

On to `COc1cc(C2C3=C(COC3=O)NC3=C2C(=O)c2ccccc2C3=O)ccn1` (stereo not drawn) [Compound 13k, 11-(2-Methoxypyridin-4-yl)-4,11-dihydrobenzo[g]furo[3,4-b]quinolin-1,5,10(3H)-trione], for which the IC50 in experiment [6] is 230 to 270 nM; in experiment [1] it was 0.27 ± 0.24 µM; in experiment [2], 2.48 ± 0.32 µM; in experiment [3] it was 1.34 ± 0.16 µM; in experiment [4] it was 0.23 ± 0.02 µM; in experiment [5] it was 270 ± 210 nM. Also, the “Selective index, KB” value in experiment [1] is 9.30. Moreover, the “Selective index, MCF7” value in experiment [3] is 1.86. Besides, the “Selective index, HepG2” value in experiment [4] is reported as 10.81. Moreover, the “Selective index, A549” value in experiment [5] is on record as 9.30.

As for `O=C1OCC2=C1C(c1ncccc1F)C1=C(N2)C(=O)c2ccccc2C1=O` (stereo not drawn) [Compound 13l, 11-(3-Fluoropyridin-2-yl)-4,11-dihydrobenzo[g]furo[3,4-b]quinolin-1,5,10(3H)-trione], the IC50 was 4.69 ± 0.58 µM in experiment [1]; 10.2 ± 1.24 µM in experiment [2]; 7.34 ± 0.94 µM in experiment [3]; 5.52 ± 0.86 µM in experiment [4]; 2150 ± 250 nM in experiment [5]. In experiment [1], the “Selective index, KB” value is 2.18. In addition, in experiment [3], the “Selective index, MCF7” value was 1.39. For the same molecule, the “Selective index, HepG2” value in experiment [4] turned out to be 1.85. Further, in experiment [5], the “Selective index, A549” value is 4.74.

In the case of `COc1ncc(C(F)(F)F)cc1C1C2=C(COC2=O)NC2=C1C(=O)c1ccccc1C2=O` (stereo not drawn) [Compound 13m, 11-(2-Methoxy-5-(trifluoromethyl)pyridin-3-yl)-4,11-dihydrobenzo[g]furo[3,4-b]quinolin-1,5,10(3H)-trione], in experiment [1], the IC50 is 4.63 ± 1.04 µM and the “Selective index, KB” value was 3.61. Besides, the IC50 in experiment [2] was 16.7 ± 1.94 µM. Further, in experiment [3], the 50% inhibitory concentration (IC50) turned out to be 7.26 ± 1.29 µM and the “Selective index, MCF7” value came to 2.31. For the same molecule, in experiment [4], the 50% inhibitory concentration (IC50) was determined as 5.83 ± 0.86 µM and the “Selective index, HepG2” value turned out to be 2.87. Also, in experiment [5], the IC50 came to 2830 ± 540 nM and the “Selective index, A549” value is listed as 5.92.

Regarding `Cc1c2ccncc2c(C)c2c1[nH]c1ccccc12` [Ellipticine, ellipticine, reference compound], in experiment [1], the IC50 amounted to 1.95 ± 0.12 µM and the “Selective index, KB” value is 2.88. Further, the IC50 in experiment [2] worked out at 5.6 ± 0.37 µM. Also, in experiment [3], the half-maximal inhibitory concentration (IC50) turned out to be 2.09 ± 0.16 µM and the “Selective index, MCF7” value stood at 2.68. Also, in experiment [4], the concentration for half-maximal inhibition (IC50) was determined as 2.11 ± 0.16 µM and the “Selective index, HepG2” value came to 2.65. Also, in experiment [5], the IC50 came to 1420 ± 80 nM and the “Selective index, A549” value is given as 3.94.
